# What was measured:
# Assay in all cases: KINOMEscan competition binding
# Conditions in all cases: compound 10.0 µM
# MAPK6 (human) = MAPK6 (human) (UniProt Q16659)
# MAPK3 (human) = MAPK3 (human) (UniProt P27361)
# PRKCI (human) = PRKCI (human) (UniProt P41743)
# PIK3CG (human) = PIK3CG (human) (UniProt P48736)
# PRPF4B (human) = PRPF4B (human) (UniProt Q13523)
# MET (human) = MET (human) (UniProt P08581)
# EPHB6 (human) = EPHB6 (human) (UniProt O15197)
# RAF1 (human) = RAF1 (human) (UniProt P04049)
# NEK3 (human) = NEK3 (human) (UniProt P51956)
# Sequence of NEK3 (human) (P51956 whole entry, looked up): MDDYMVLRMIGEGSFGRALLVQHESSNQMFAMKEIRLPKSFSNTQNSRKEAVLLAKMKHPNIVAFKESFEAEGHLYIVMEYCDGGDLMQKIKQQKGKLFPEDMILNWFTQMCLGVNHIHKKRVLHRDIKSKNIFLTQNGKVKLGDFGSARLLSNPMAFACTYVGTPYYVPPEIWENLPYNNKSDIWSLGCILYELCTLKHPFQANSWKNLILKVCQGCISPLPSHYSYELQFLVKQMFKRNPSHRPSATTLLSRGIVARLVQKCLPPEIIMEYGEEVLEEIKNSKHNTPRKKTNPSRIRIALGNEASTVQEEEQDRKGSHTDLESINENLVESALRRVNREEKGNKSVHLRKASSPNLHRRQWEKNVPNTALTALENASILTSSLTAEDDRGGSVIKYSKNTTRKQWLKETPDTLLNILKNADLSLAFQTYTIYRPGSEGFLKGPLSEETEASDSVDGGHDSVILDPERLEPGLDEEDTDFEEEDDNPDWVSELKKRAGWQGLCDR
# ERBB3 (human) = ERBB3 (human) (UniProt P21860)
# NEK4 (human) = NEK4 (human) (UniProt P51957)
# PIP5K1A (human) = PIP5K1A (human) (UniProt Q99755)
# MARK2 (human) = MARK2 (human) (UniProt Q7KZI7)
# CDK13 (human) = CDK13 (human) (UniProt Q14004)
# LYN (human) = LYN (human) (UniProt P07948)
# Sequence of LYN (human) (P07948 whole entry, looked up): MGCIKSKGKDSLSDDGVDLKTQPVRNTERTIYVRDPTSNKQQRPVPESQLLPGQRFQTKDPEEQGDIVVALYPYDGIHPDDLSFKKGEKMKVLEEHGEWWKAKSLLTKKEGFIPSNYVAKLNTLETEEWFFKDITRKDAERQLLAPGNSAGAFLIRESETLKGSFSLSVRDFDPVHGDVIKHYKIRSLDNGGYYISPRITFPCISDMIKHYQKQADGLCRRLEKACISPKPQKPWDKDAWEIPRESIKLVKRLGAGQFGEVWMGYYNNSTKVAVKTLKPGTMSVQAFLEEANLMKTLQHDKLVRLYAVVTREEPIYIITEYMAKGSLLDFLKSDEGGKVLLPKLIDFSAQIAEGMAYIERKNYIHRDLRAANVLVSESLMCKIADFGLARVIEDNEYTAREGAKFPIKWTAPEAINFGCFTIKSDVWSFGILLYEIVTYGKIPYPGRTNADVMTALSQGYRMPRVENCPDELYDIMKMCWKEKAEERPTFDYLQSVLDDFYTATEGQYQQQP
# PIM1 (human) = PIM1 (human) (UniProt P11309)
# Sequence of PIM1 (human) (P11309 whole entry, looked up): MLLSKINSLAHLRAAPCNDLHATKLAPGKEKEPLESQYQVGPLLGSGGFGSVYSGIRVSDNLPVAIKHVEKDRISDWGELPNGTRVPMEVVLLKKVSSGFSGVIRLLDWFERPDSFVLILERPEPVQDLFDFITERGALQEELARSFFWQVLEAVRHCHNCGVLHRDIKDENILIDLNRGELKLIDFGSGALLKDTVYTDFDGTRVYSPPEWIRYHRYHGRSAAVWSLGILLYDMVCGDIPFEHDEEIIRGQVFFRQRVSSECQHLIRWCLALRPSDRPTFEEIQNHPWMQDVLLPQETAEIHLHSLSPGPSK
# INSR (human) = INSR (human) (UniProt P06213)
# MAST1 (human) = MAST1 (human) (UniProt Q9Y2H9)
# DCLK2 (human) = DCLK2 (human) (UniProt Q8N568)
# MAP4K2 (human) = MAP4K2 (human) (UniProt Q12851)
# [1] = tested on: FLT3 (human), P36888 [D835H]
# HIPK2 (human) = HIPK2 (human) (UniProt Q9H2X6)
# NUAK2 (human) = NUAK2 (human) (UniProt Q9H093)
# [2] = tested on: MET (human), P08581 [Y1235D]
# EPHB3 (human) = EPHB3 (human) (UniProt P54753)
# CSNK1G2 (human) = CSNK1G2 (human) (UniProt P78368)
# Sequence of CSNK1G2 (human) (P78368 whole entry, looked up): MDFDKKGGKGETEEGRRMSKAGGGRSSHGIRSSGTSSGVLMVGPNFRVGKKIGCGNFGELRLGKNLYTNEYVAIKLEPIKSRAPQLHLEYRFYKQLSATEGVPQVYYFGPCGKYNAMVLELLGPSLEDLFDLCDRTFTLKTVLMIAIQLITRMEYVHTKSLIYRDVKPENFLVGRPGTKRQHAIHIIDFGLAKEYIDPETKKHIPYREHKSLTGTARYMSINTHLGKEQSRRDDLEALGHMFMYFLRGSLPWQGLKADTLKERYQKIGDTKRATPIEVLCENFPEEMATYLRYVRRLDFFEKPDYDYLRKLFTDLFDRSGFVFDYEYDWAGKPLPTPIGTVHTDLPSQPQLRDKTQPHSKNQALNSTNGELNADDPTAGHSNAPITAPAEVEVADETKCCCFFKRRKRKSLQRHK
# SNRK (human) = SNRK (human) (UniProt Q9NRH2)
# STK32A (human) = STK32A (human) (UniProt Q8WU08)
# GRK7 (human) = GRK7 (human) (UniProt Q8WTQ7)
# Sequence of GRK7 (human) (Q8WTQ7 whole entry, looked up): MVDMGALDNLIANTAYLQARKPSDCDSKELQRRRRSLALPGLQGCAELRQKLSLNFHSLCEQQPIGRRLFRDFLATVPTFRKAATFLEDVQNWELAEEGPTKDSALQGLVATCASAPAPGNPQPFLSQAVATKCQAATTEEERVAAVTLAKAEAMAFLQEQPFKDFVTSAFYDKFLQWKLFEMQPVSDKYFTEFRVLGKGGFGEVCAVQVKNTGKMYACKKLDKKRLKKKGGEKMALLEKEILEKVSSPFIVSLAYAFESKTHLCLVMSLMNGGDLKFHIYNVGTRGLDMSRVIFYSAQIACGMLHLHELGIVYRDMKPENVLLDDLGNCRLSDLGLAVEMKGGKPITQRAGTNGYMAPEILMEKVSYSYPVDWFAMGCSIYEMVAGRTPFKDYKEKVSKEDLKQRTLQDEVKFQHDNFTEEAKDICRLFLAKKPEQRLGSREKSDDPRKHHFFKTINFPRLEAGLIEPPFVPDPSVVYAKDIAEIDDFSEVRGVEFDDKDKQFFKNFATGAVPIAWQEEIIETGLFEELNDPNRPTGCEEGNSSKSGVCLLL
# PKN1 (human) = PKN1 (human) (UniProt Q16512)
# Sequence of PKN1 (human) (Q16512 whole entry, looked up): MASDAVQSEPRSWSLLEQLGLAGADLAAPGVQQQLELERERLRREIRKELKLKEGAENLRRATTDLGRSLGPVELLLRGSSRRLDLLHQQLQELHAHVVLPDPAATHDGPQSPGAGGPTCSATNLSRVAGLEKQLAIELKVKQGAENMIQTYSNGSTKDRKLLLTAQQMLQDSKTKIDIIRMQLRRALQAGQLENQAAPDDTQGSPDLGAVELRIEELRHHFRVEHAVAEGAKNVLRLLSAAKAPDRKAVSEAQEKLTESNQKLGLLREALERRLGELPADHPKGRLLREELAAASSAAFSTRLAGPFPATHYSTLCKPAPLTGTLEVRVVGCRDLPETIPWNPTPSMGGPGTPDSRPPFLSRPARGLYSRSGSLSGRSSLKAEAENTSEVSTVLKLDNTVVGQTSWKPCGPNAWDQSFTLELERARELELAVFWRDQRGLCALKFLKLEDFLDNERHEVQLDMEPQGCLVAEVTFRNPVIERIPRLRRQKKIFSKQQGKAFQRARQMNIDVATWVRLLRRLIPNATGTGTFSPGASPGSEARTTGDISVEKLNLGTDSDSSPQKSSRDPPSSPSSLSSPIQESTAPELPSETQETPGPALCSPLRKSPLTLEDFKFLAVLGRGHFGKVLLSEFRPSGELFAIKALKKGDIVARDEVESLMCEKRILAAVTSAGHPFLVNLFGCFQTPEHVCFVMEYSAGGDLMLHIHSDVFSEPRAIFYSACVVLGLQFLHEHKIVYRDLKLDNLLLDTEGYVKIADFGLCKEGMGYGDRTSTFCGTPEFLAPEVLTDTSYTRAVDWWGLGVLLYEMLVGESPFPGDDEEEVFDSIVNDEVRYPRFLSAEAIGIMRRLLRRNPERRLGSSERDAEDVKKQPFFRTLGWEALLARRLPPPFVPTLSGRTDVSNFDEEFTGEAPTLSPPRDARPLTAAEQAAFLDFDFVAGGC
# IRAK3 (human) = IRAK3 (human) (UniProt Q9Y616)
# CRK2 (P.falciparum) = CRK2 (P.falciparum) (UniProt P61075)
# Sequence of CRK2 (P.falciparum) (P61075 whole entry, looked up): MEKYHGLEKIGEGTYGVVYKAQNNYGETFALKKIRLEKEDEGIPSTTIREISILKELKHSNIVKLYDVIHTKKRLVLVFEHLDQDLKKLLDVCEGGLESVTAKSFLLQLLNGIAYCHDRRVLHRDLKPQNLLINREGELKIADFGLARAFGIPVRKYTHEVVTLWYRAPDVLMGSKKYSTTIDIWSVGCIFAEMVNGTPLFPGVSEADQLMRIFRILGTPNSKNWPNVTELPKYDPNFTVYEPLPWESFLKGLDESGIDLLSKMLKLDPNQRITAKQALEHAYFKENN
# CSNK1E (human) = CSNK1E (human) (UniProt P49674)
# Sequence of CSNK1E (human) (P49674 whole entry, looked up): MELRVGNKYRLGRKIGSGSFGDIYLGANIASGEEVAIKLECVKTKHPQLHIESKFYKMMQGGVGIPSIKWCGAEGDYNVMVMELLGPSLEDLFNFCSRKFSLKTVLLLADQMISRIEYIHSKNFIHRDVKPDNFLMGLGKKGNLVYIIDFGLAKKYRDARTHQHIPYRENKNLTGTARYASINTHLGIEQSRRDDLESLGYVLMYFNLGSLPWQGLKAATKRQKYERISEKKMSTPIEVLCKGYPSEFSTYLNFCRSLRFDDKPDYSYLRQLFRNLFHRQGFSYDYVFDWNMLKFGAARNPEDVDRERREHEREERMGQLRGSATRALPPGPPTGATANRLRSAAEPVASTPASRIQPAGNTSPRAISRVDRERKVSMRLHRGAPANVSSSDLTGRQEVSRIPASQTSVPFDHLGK
# BMPR2 (human) = BMPR2 (human) (UniProt Q13873)
# LTK (human) = LTK (human) (UniProt P29376)
# CHEK2 (human) = CHEK2 (human) (UniProt O96017)
# TAOK2 (human) = TAOK2 (human) (UniProt Q9UL54)
# MAP3K11 (human) = MAP3K11 (human) (UniProt Q16584)
# RIOK1 (human) = RIOK1 (human) (UniProt Q9BRS2)
# Sequence of PRPF4B (human) (Q13523 whole entry, looked up): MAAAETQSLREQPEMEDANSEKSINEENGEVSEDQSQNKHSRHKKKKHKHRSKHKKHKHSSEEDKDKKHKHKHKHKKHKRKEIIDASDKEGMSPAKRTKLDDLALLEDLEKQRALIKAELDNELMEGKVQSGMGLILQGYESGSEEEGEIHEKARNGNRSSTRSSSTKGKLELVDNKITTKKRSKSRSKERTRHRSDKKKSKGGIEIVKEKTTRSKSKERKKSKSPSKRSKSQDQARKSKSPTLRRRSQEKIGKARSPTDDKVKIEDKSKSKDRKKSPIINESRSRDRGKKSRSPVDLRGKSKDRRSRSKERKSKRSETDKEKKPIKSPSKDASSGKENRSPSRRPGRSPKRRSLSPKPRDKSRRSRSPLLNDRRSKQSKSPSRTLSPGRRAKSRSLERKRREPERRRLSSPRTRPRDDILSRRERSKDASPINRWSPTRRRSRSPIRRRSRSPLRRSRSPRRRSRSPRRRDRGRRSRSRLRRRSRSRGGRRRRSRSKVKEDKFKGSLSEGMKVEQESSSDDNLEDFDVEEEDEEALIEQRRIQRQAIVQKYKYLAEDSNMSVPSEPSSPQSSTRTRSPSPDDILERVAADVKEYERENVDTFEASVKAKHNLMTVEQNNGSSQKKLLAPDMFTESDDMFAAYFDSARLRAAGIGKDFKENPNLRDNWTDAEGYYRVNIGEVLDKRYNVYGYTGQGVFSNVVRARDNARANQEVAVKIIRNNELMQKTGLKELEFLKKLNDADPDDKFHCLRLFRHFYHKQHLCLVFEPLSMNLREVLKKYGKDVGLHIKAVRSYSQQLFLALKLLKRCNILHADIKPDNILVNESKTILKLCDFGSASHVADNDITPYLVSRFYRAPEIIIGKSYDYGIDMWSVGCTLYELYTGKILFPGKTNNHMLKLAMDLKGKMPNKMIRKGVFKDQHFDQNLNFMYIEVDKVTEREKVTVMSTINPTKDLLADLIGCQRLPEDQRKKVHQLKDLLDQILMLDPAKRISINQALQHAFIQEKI
structure (smiles),measurement,setting,value
O=C1NC(=O)/C(=C/c2ccc3nccc(-c4ccncc4)c3c2)S1,"kinase still bound, per cent of control",MAPK6 (human),100%
same,"kinase still bound, per cent of control",MAPK3 (human),100%
same,"kinase still bound, per cent of control",PRKCI (human),67%
same,"kinase still bound, per cent of control",PIK3CG (human),0%
same,"kinase still bound, per cent of control",PRPF4B (human),88%
same,"kinase still bound, per cent of control",MET (human),32%
same,"kinase still bound, per cent of control",EPHB6 (human),39%
same,"kinase still bound, per cent of control",RAF1 (human),47%
same,"kinase still bound, per cent of control",NEK3 (human),77%
same,"kinase still bound, per cent of control",ERBB3 (human),88%
same,"kinase still bound, per cent of control",NEK4 (human),96%
same,"kinase still bound, per cent of control",PIP5K1A (human),48%
same,"kinase still bound, per cent of control",MARK2 (human),74%
same,"kinase still bound, per cent of control",CDK13 (human),95%
same,"kinase still bound, per cent of control",LYN (human),92%
same,"kinase still bound, per cent of control",PIM1 (human),1%
same,"kinase still bound, per cent of control",INSR (human),77%
same,"kinase still bound, per cent of control",MAST1 (human),83%
same,"kinase still bound, per cent of control",DCLK2 (human),91%
same,"kinase still bound, per cent of control",MAP4K2 (human),5.8%
same,"kinase still bound, per cent of control",[1],31%
same,"kinase still bound, per cent of control",HIPK2 (human),0.15%
same,"kinase still bound, per cent of control",NUAK2 (human),36%
same,"kinase still bound, per cent of control",[2],94%
same,"kinase still bound, per cent of control",EPHB3 (human),71%
same,"kinase still bound, per cent of control",CSNK1G2 (human),0.05%
same,"kinase still bound, per cent of control",SNRK (human),100%
same,"kinase still bound, per cent of control",STK32A (human),83%
same,"kinase still bound, per cent of control",GRK7 (human),5.4%
same,"kinase still bound, per cent of control",PKN1 (human),56%
same,"kinase still bound, per cent of control",IRAK3 (human),14%
same,"kinase still bound, per cent of control",CRK2 (P.falciparum),93%
same,"kinase still bound, per cent of control",CSNK1E (human),2.6%
same,"kinase still bound, per cent of control",BMPR2 (human),100%
same,"kinase still bound, per cent of control",LTK (human),22%
same,"kinase still bound, per cent of control",CHEK2 (human),57%
same,"kinase still bound, per cent of control",TAOK2 (human),50%
same,"kinase still bound, per cent of control",MAP3K11 (human),98%
same,"kinase still bound, per cent of control",RIOK1 (human),1%
